Measured values from patent US20240208898A1, “ENAMINE N-OXIDES: SYNTHESIS AND APPLICATION TO HYPOXIA-RESPONSIVE PRODRUGS AND IMAGING AGENTS” (DANA-FARBER CANCER INSTITUTE, INC., priority 2021, published 2024).

Columns and labels:
[1] = test system: series of cancer cell lines; assay: In-gel fluorescence labeling profile in a series of cancer cell lines; format: cell-based
Procedure: Cells were seeded at a density of 200,000 cells per well in media [2 mL, RPMI (A431, H460, HeLa, Bx-PC3, MDA-MB-231) or DMEM (U251) supplemented with 5% heat-inactivated human serum (Sigma), penicillin (100 units/mL), and streptomycin (0.1 mg/mL)] in 6-well plates. Cells were incubated at 37° C. under ambient atmosphere with 5% CO2. After 24 h, the media was aspirated and replaced with fresh media [1 mL, RPMI (A431, H460, HeLa, Bx-PC3, MDA-MB-231) or DMEM (U251) supplemented with 5% heat-inactivated human serum, penicillin (100 units/mL), and streptomycin (0.1 mg/mL)] containing enamine N-oxide probe (200 mM in ethanol; 10 μM final concentration). Plates were then incubated at 37° C. under ambient (20% pO2) or various oxygenated conditions (5%, 1%, or 0.1% pO2) with 5% CO2. […] The protein concentration was determined by BCA assay following the manufacturer's protocol (Pierce). […] The dried pellet was then resuspended in an SDS solution (50 μL, 1% SDS in 50 mM Tris, pH 8.0), and the protein concentration was determined by BCA assay. […] In-gel fluorescence was visualized by a laser scanner (Typhoon™ FLA 9500, GE) and quantified using ImageJ software. […] Detection was mediated by an anti-rabbit IR680-dye conjugated secondary antibody (LI-COR Biosciences, 925-68071) and imaged using a fluorescence scanner (Odyssey CLx, LI-COR Biosciences).

[2] = test system: BxPC-3 xenograft mouse model; assay: Near infrared imaging in live mice; format: in vivo; conditions: intraperitoneal 20 mg/kg
Procedure: All animal experiments were performed according to procedures and protocols approved by the Dana-Farber Cancer Institute Institutional Animal Care and Use Committee. Bx-PC3 cells were grown to confluency in antibiotic-free RPMI supplemented with 10% FBS, trypsinized, and washed three times with ice cold PBS (50 mL). Cells were resuspended in PBS at a concentration of 1.0×10^7 cells per 100 μL. 8-week old, female, homozygous NU/J mice (Jackson Laboratory) were subcutaneously injected with 1.0×10^7 Bx-PC3 cells over the right hind flank under isoflurane anesthesia. Experiments were performed when tumors reached 1000 mm^3 in size. Mice were intraperitoneally injected with a solution of Si700-enamine N-oxide probe 42 (20 mg/kg, 7.93 mM in 0.9% saline). Under isoflurane anesthesia, mice were then imaged with a Xenogen IVIS 100 fluorescence imager using an excitation of 675 nm and emission of 720 nm at various time points (0 hours (before treatment), 6 hours, 24 hours and 30 hours (after treatment)). Mice were then intraperitoneally injected with a solution of Si700-enamine N-oxide probe 42 (20 mg/kg, 7.93 mM in 0.9% saline) 30 hours post injection. After 16 hours, mice were intraperitoneally injected with a bolus of pimonidazole solution (200 μL, 25.8 mM pimonidazole in 0.9% saline). […]

SMILES	labeling profile (hypoxic vs normoxic) [1]	near-infrared fluorescence imaging: accumulation in the tumor [2]
C#CCCCCC(F)/C=C/[N+]([O-])(CC)CC (centres unmarked) [probe 39, (E)-N,N-diethyl-3-fluoronon-1-en-8-yn-1-amine oxide]	hypoxia selectivity	
C#CCN(CCCCCC(F)/C=C/[N+]([O-])(CC)CC)C(=O)c1ccc(C2=c3cc4c(cc3[Si](C)(C)c3cc5c(cc32)CCN5C)=[N+](C)CC4)c(C)c1 (centres unmarked) [probe 42, Si700-enamine N-oxide]		preferential accumulation of enamine N-oxide probe 42 in the tumor
